Experimental data: patent US20220257592A1, “METHODS OF TREATING CANCER” (HOFFMANN-LA ROCHE INC., priority 2019, published 2022)

Assay: Clinical trial safety, integrated analysis of ALKA, STARTRK-1, STARTRK-2, STARTRK-NG (N=504)
Description: The following categories of frequency have been used: very common ≥1/10, common (≥1/100 to <1/10), uncommon (≥1/1,000 to <1/100), rare (≥1/10,000 to <1/1000), very rare (<1/10,000).

CN1CCN(c2ccc(C(=O)Nc3n[nH]c4ccc(Cc5cc(F)cc(F)c5)cc34)c(NC3CCOCC3)c2)CC1 [Entrectinib, N-[5-(3,5-difluorobenzyl)-1H-indazol-3-yl]-4-(4-methyl-piperazin-1-yl)-2-(tetrahydro-pyran-4-ylamino)-benzamide]
Laboratory: Hyperuricemia, Change from Baseline All Grades (N = 382): 50.8% | Laboratory: Hyperuricemia, Change from Baseline to Grade 3 or 4 (N = 382): 6.8% | Laboratory: Decreased Neutrophils, Change from Baseline All Grades (N = 457): 27.8% | Laboratory: Decreased Neutrophils, Change from Baseline to Grade 3 or 4 (N = 457): 6.3% | Laboratory: Increased AST, Change from Baseline All Grades (N = 478): 43.3% | Laboratory: Increased AST, Change from Baseline to Grade 3 or 4 (N = 478): 3.3% | Laboratory: Increased ALT, Change from Baseline All Grades (N = 479): 38.4% | Laboratory: Increased ALT, Change from Baseline to Grade 3 or 4 (N = 479): 3.1% | Laboratory: Increased Blood Creatinine, Change from Baseline All Grades (N = 480): 94.8% | Laboratory: Increased Blood Creatinine, Change from Baseline to Grade 3 or 4 (N = 480): 3.1% | Laboratory: Decreased Hemoglobin, Change from Baseline All Grades (N = 487): 65.7% | Laboratory: Decreased Hemoglobin, Change from Baseline to Grade 3 or 4 (N = 487): 9.2% | ALT increased, All Grades (N = 504): 16.1% | ALT increased, Frequency Category (All Grades) (N = 504): very common (very common ≥1/10) | ALT increased, Grade ≥3 (N = 504): 3.4% | AST increased, All Grades (N = 504): 17.5% | AST increased, Frequency Category (All Grades) (N = 504): very common (very common ≥1/10) | AST increased, Grade ≥3 (N = 504): 3.6% | Abdominal pain, All Grades (N = 504): 11.1% | Abdominal pain, Frequency Category (All Grades) (N = 504): very common (very common ≥1/10) | Abdominal pain, Grade ≥3 (N = 504): 0.6% | Anemia, All Grades (N = 504): 28.2% | Anemia, Frequency Category (All Grades) (N = 504): very common (very common ≥1/10) | Anemia, Grade ≥3 (N = 504): 9.7% | Arthralgia, All Grades (N = 504): 19.0% | Arthralgia, Frequency Category (All Grades) (N = 504): very common (very common ≥1/10) | Arthralgia, Grade ≥3 (N = 504): 0.6% | Ataxia, Frequency Category (All Grades) (N = 504): very common (very common ≥1/10) | Ataxia, Grade ≥3 (N = 504): 0.8% | Blood creatinine increased, All Grades (N = 504): 25.4% | Blood creatinine increased, Frequency Category (All Grades) (N = 504): very common (very common ≥1/10) | Blood creatinine increased, Grade ≥3 (N = 504): 0.6% | Cognitive Disorders, All Grades (N = 504): 24.2% | Cognitive Disorders, Frequency Category (All Grades) (N = 504): very common (very common ≥1/10) | Cognitive Disorders, Grade ≥3 (N = 504): 4.4% | Congestive Heart Failure, All Grades (N = 504): 3.0% | Congestive Heart Failure, Frequency Category (All Grades) (N = 504): common (common (≥1/100 to <1/10)) | Congestive Heart Failure, Grade ≥3 (N = 504): 2.2% | Constipation, All Grades (N = 504): 42.9% | Constipation, Frequency Category (All Grades) (N = 504): very common (very common ≥1/10) | Constipation, Grade ≥3 (N = 504): 0.4% | Cough, All Grades (N = 504): 21.4% | Cough, Frequency Category (All Grades) (N = 504): very common (very common ≥1/10) | Cough, Grade ≥3 (N = 504): 0.6% | Decreased appetite, All Grades (N = 504): 11.9% | Decreased appetite, Frequency Category (All Grades) (N = 504): very common (very common ≥1/10) | Decreased appetite, Grade ≥3 (N = 504): 0.2% | Dehydration, All Grades (N = 504): 7.9% | Dehydration, Frequency Category (All Grades) (N = 504): common (common (≥1/100 to <1/10)) | Dehydration, Grade ≥3 (N = 504): 1.0% | Diarrhea, All Grades (N = 504): 33.5% | Diarrhea, Frequency Category (All Grades) (N = 504): very common (very common ≥1/10) | Diarrhea, Grade ≥3 (N = 504): 2.6% | Dizziness, All Grades (N = 504): 39.7% | Dizziness, Frequency Category (All Grades) (N = 504): very common (very common ≥1/10) | Dizziness, Grade ≥3 (N = 504): 1.2% | Dysasthesia, All Grades (N = 504): 29.0% | Dysasthesia, Frequency Category (All Grades) (N = 504): very common (very common ≥1/10) | Dysasthesia, Grade ≥3 (N = 504): 0.2% | Dysgeusia, All Grades (N = 504): 42.3% | Dysgeusia, Frequency Category (All Grades) (N = 504): very common (very common ≥1/10) | Dysgeusia, Grade ≥3 (N = 504): 0.4% | Dysphagia, All Grades (N = 504): 10.1% | Dysphagia, Frequency Category (All Grades) (N = 504): very common (very common ≥1/10) | Dysphagia, Grade ≥3 (N = 504): 0.4% | Dyspnea, All Grades (N = 504): 27.0% | Dyspnea, Frequency Category (All Grades) (N = 504): very common (very common ≥1/10) | Edema, All Grades (N = 504): 37.3% | Edema, Frequency Category (All Grades) (N = 504): very common (very common ≥1/10) | Edema, Grade ≥3 (N = 504): 1.4% | Electrocardiogram QT prolonged, All Grades (N = 504): 2.0% | Electrocardiogram QT prolonged, Grade ≥3 (N = 504): 0.6% | Fatigue, All Grades (N = 504): 45.0% | Fatigue, Frequency Category (All Grades) (N = 504): very common (very common ≥1/10) | Fatigue, Grade ≥3 (N = 504): 5.0% | Fractures, All Grades (N = 504): 6.2% | Fractures, Frequency Category (All Grades) (N = 504): common (common (≥1/100 to <1/10)) | Fractures, Grade ≥3 (N = 504): 2.4% | Headache, All Grades (N = 504): 17.5% | Headache, Frequency Category (All Grades) (N = 504): very common (very common ≥1/10) | Headache, Grade ≥3 (N = 504): 1.0% | Hyperuricemia, All Grades (N = 504): 9.1% | Hyperuricemia, Frequency Category (All Grades) (N = 504): common (common (≥1/100 to <1/10)) | Hyperuricemia, Grade ≥3 (N = 504): 1.8% | Hypotension, All Grades (N = 504): 16.5% | Hypotension, Frequency Category (All Grades) (N = 504): very common (very common ≥1/10) | Hypotension, Grade ≥3 (N = 504): 2.4% | Lung infection, All Grades (N = 504): 13.1% | Lung infection, Frequency Category (All Grades) (N = 504): very common (very common ≥1/10) | Mood disorders, All Grades (N = 504): 9.1% | Mood disorders, Frequency Category (All Grades) (N = 504): common (common (≥1/100 to <1/10)) | Mood disorders, Grade ≥3 (N = 504): 0.6% | Muscular weakness, All Grades (N = 504): 12.3% | Muscular weakness, Frequency Category (All Grades) (N = 504): very common (very common ≥1/10) | Muscular weakness, Grade ≥3 (N = 504): 1.2% | Myalgia, All Grades (N = 504): 19.6%
